Results published in patent US20220280558A1, “MOLECULAR HYDROGEN-CONTAINING COMPOSITION FOR PREVENTING OR IMPROVING OSTEOPOROSIS” (MiZ Company Limited, priority 2021, published 2022).

Test system: human osteoporosis
Test: Case 1: bone density and symptoms of a person with compression fractures
Assay type: in vivo
Conditions: human patient
Source text: In the present specification, bone density can be measured by an existing measuring method, for example, by dual-energy-x-ray absorptiometry (DXA) of the trunk bone.

[1] = hydrogen gas inhalation 1.5% to 2.0% by volume

Molecule	bone density (baseline 74%, injection once every six months, 18 months later)	bone density (injection once every six months, August 2020)	bone density (injection once every six months, February 2020)	body feeling [1]	daily activity (weeding in the garden) [1]	feeling when waking up in the morning [1]	gait [1]	pain at the compression fracture sites in the lower back [1]	tiredness [1]	bone density (inhalation from November 2020, 1.5% to 2.0% by volume hydrogen, 30 mL/min, nightly, measured March 2021 (84% in August 2020))
denosumab [Pralia Subcutaneous Injection, reference compound]	exceeded 80%	84%	86%	–	–	–	–	–	–	–
[HH] [hydrogen gas, molecular hydrogen]	–	–	–	feeling that the body became light	weeding in the garden becoming easy	having a good feeling and feeling refreshed	improvement in the gait	improvement	feeling tired less easily	92%
